Source: patent publication US20220089600A1, “TGFß INHIBITOR AND PRODRUGS” (FUNDACIÓ INSTITUT DE RECERCA BIOMÈDICA (IRB BARCELONA), priority 2018, published 2022)
pKd: −log10 of the molar value.

Assays:
MTO129 liver metastases [1] = experiment: Liver metastasis formation assay versus compounds 338 and 337 (FIG. 17); format: in vivo, mouse; conditions: FIG. 17, 1× dose, day 2 to 18, count at 21 days
Protocol: In another experiment (FIG. 17), we compared the in vivo therapeutic activity of compound of formula I to the related compound 338 and compound 337. […] All mice were treated from day 2 to day 18 post inoculation of tumor cells. Number of liver metastases were counted at 21 days after MTO inoculation.

ALK5 (TGFBR1) = biological target: T1, ALK5 (TGFBR1) (Homo sapiens, UniProt P36897); experiment: KINOMEscan affinity, competition binding
T1 sequence (P36897 34-503): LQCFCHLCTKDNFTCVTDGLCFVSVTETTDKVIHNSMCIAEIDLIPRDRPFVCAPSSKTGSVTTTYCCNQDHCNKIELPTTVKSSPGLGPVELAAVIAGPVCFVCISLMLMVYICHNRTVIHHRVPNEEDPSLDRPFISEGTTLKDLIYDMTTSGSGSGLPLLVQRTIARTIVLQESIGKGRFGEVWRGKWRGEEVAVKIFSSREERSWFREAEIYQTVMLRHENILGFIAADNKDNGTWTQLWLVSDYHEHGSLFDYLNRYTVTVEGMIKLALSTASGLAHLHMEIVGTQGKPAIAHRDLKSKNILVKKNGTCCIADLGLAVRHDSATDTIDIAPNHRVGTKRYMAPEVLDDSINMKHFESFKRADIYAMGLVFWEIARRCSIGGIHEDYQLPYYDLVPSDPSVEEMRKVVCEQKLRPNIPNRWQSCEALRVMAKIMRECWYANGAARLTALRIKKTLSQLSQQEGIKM
Protocol: (§1) The affinity, measured as Kd (dissociation constants), of the compound of formula I for the ALK family was determined by using the KINOMEscan™ Technology from Eurofins. Selectivity in front of ALK1 (ACVRL1), ALK2 (ACVR1), ALK3 (BMPR1A), ALK4 (ACVR1B), ALK6 (BMPR1B), ACVR2B and TGFβR2 was determined.
(§2) The assay is performed by combining three components: DNA-tagged kinase; immobilized ligand; and a test compound. The ability of the test compound to compete with the immobilized ligand is measured via quantitative PCR of the DNA tag.
(§3) Test compounds were prepared as 111× stocks in 100% DMSO. Kds were determined using an 11-point 3-fold compound dilution series with three DMSO control points being the top concentration 30 μM. […] The compounds were then diluted directly into the assays such that the final concentration of DMSO was 0.9%. All reactions performed in polypropylene 384-well plate. Each was a final volume of 0.02 ml. […] The beads were then re-suspended in elution buffer (1×PBS, 0.05% Tween 20, 0.5 μM non-biotinylated affinity ligand) and incubated at room temperature with shaking for 30 minutes. The kinase concentration in the eluates was measured by qPCR.
(§4) Dissociation constants (Kds) for test compound-kinase interactions are calculated by measuring the amount of kinase captured on the solid support as a function of the test compound concentration.

ALK4 (ACVR1B) = biological target: T2, ALK4 (ACVR1B) (Homo sapiens, UniProt P36896); experiment: KINOMEscan affinity, competition binding
T2 construct: purchased Eurofins (KINOMEscan service)
Protocol: as §1, §2, §3, §4

[2] = test system: MTO129 established liver metastases; experiment: Overt metastatic disease model, alone or with anti-PD-1; conditions: monotherapy
Description: For this purpose, the protocol of mouse inoculation with MTO129 described for FIG. 13 was used, but here treatment with compounds started at day 16 post-inoculation. At this time point mice had developed large metastases. Treatments finished at day 24. […] In these experiments, the vast majority (>90%) of control mice die of liver metastatic disease.
Mouse tumor organoids (MTO129) were developed as indicated in example 3. C57BL/6J mice were purchased from Janvier at 6 weeks of age and injected at 7-8 weeks. For transplantation of MTO129 into the liver, cells were trypsinized (digesting the matrix and disaggregating organoids into single cells), counted and 300,000 cells were injected in HBSS (Hank's Balanced Salt Solution, Lonza) into the spleen, thus delivering the cells directly into the portal vein that connects the intestine to the liver. […] Treatment with compounds occurred by gavage (tube feeding) and mice were treated twice a day with 150 μl of compound suspension in vehicle. […] Control mice were given gavage vehicle and IgG2a isotype control antibody.
At this time point, mice had developed large liver metastases. Treatments finished at day 24. […] In these experiments, the vast majority (>90%) of control mice die of liver metastatic disease.

MTO129 liver metastases [3] = experiment: Mouse liver metastasis initiation/formation assay with MTOs; format: in vivo; conditions: for Efficacy (Cure rate): two weeks, mice with no metastases
Description: Mouse tumor organoids (MTOs) are derived from compound transgenic mice (conditional mutations in Apc, Kras, Trp53 and Tgfbr2, as well as bearing Lgr5-EGFP/CreER^T2) of the C57BL6/J strain and cultured as described in Tauriello et al. 2018 Nature 554(7693): 538-543. doi: 10.1038/nature25492. Organoids are tumor epithelial cells grown in a 3D matrix where they adopt an organotypic architecture, typically as spheroids with a lumen. In this way, cells retain a relatively normal polarity (which means that the outside surface, inside/luminal surface and cell-cell contacts are individually specialized), which is more physiological than in conventional 2D cell culture.
In all experiments described in present invention MTO129 were used (Tauriello et al. Nature. 2018).
In patients, treatment doses were reduced to 80 to 150 mg b.i.d in a regime of 14 days on-14 days off.
MTOs expressing a luciferase reporter were measured by bioluminescence imaging, using retroorbital injection of 50 μl 15 mg/ml D-luciferin potassium salt (Resem BV). Photons per second from the region spanning thorax/abdomen were quantified and normalized to the measure at the day of injection.
Control mice were treated with 150 μl of vehicle.
In the experiment shown in FIG. 13, potency of the indicated compounds to inhibit metastasis formation was assessed. Mice were treatments with indicated compounds started two days after MTO129 transplantation and continued during two weeks. Mice were sacrificed at 4 weeks post transplantation and liver metastases (LiMs) were counted by eye on fixed livers.

human ALK5 = biological target: T3, human ALK5 (Homo sapiens, UniProt P36897); experiment: KinaseProfiler enzymatic activity inhibition; format: biochemical
T3 construct: purchased Eurofins (Kinase Profiler service)
T3 sequence (P36897 34-503): T1 sequence (P36897 34-503)
Protocol: Briefly, human ALK5 was incubated with 8 mM MOPS pH 7.0, 0.2 mM EDTA, 1 mM MnCl2, 2 mg/mL casein, 10 mM MgAcetate and [γ-33P-ATP] (specific activity approx. 500 cpm/pmol, concentration as required). The reaction was initiated by the addition of the MgATP mix. After incubation for 40 minutes at room temperature, the reaction was stopped by the addition of a 3% phosphoric acid solution. 10 μL of the reaction was then spotted onto a P30 filtermat and washed three times for 5 minutes in 75 mM phosphoric acid and once in methanol prior to drying and scintillation counting.
Compounds were tested using a 9-point curve with half-Log serial dilutions. The top concentration tested was 10 μM. Test compounds were prepared in 100% DMSO.

T2 sequence (P36896 24-505): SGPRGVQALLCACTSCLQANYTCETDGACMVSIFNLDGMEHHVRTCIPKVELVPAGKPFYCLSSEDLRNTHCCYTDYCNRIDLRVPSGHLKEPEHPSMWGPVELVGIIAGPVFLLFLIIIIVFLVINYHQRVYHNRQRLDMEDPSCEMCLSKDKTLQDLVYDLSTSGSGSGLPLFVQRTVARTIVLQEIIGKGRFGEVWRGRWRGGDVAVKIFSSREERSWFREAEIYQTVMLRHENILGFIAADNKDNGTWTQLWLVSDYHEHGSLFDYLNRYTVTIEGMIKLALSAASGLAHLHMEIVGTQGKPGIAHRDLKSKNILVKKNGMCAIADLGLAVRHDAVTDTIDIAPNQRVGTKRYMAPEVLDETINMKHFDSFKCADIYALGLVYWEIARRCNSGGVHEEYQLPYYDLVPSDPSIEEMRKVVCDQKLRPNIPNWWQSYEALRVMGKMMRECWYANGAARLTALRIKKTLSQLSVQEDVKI

Cc1cccc(-c2nn3c(c2-c2ccnc4ccc(O)cc24)CCC3)n1 [compound of formula I, 4-(2-(6-methylpyridin-2-yl)-5,6-dihydro-4H-pyrrolo[1,2-b]pyrazol-3-yl)quinolin-6-ol]
potency to block the formation of metastasis compared to compound 338 and compound 337 (MTO129 liver metastases [1]): enhanced potency | Selectivity against ALK5 (ALK5 (TGFBR1); ALK5 versus ALK5): 1 | pKd (ALK5 (TGFBR1); KINOMEscan): 7.70 | ALK5 binding affinity, times higher than Galunisertib (ALK5 (TGFBR1); versus published galunisertib data): 8.6 times | Selectivity improvement (ALK4 (ACVR1B); (I) versus Galunisertib): 1.4 | Selectivity against ALK5 (ALK4 (ACVR1B); ALK4 versus ALK5): 0.7 | efficacy at reducing the number of liver metastasis compared to galunisertib ([2]; FIG. 14, 1× equimolar doses): improved efficacy | survival rates compared to galunisertib ([2]; FIG. 15, 1× equimolar doses): higher survival rates | Efficacy (Cure rate) (MTO129 liver metastases [3]; 0.3x dose): ~90% | Efficacy (Cure rate) (MTO129 liver metastases [3]; 1x dose): ~90% | Efficacy (Cure rate) (MTO129 liver metastases [3]; 3x dose): 100% | Efficacy (Cure rate) (MTO129 liver metastases [3]; 9x dose): 100% | liver tumor count (LiMs) compared to galunisertib (MTO129 liver metastases [3]; FIG. 3, 0.3× to 9× doses): significant lower amount of liver tumors | metastatic tumor growth inhibitory capacity (bioluminescence) (MTO129 liver metastases [3]; FIG. 4, 0.3× dose, day 3 until day 14): effective | activity in preventing liver metastasis formation, in words (MTO129 liver metastases [3]; FIG. 13, 0.3× dose (21.25 mg/Kg b.i.d)): still effective | activity in preventing liver metastasis formation, in words (MTO129 liver metastases [3]; FIG. 13, 1× dose): significant improved activity | effective dose, fold lower than the effective Galunisertib dose (MTO129 liver metastases [3]; in vivo experiments): 10 fold | effective dose (>50% efficacy) (MTO129 liver metastases [3]; oral, divided b.i.d.): 42.5 mg/kg/day | toxicity screens including genotoxicity (Genotoxicity screens): cleared | IC50 (human ALK5; KinaseProfiler, 9-point curve, top 10 μM, read-out: Enzyme activity inhibition IC50 (nM) ALK5 (TGFBR1)): 177 nM | ALK5 enzymatic potency, times more potent than prodrug of formula (III) (human ALK5; from Table 2): 4.7 times | ALK5 enzymatic potency, times more potent than prodrug of formula (IV) (human ALK5; from Table 2): 12.9 times | ALK5 enzymatic potency, times more potent than reference compound 337 (human ALK5; from Table 2): 1.8 times | ALK5 enzymatic potency, times more potent than reference compound 338 (human ALK5; from Table 2): 2.1 times
